Here are results for 3 compounds from patent publication US20150238488A1, “DRUG COMPOSITION FOR TREATING TUMORS AND APPLICATION THEREOF” (priority 2012, published 2015).

Where two headings read alike, the source gives them in different places.

In general, cell viability refers to a read-out of living cells in per cent, often relative to untreated cells. A word on the viability: it is a per cent measure of how many cells are alive, often set against a control.

For series [1], the system named is human leukemia Jurkat cells. The following applies: cited from earlier work.
In series [2] the test system is K562/ADR leukemia transplanted tumor. The series can be described thus: Experiment 2-1: inhibition of leukemia transplanted tumor in nude mice (BBM, IM). It is filed as in vivo, BALB/c-nu nude mice. As to conditions: K562/ADR xenograft, 100 mg/kg each drug, intragastric, 2 times a day, 14 days, Day 23; for Tumor inhibition rate (%): control = 0; for Tumor weight: x ± s. The method, then:
Leukemia cell lines: K562/ADR (ADM-resistant human chronic granulocytic leukemia cell line);
(§1) Animals: BALB/c-nu nude mice
(§2) Under sterile conditions, the above tumor cells were collected in the logarithmic growth phase, and were injected by subcutaneous injection in an amount of 1×10^7/0.2 mL/nude mice (cell viability>95%) into the right subaxillary of the nude mice, thus establishing leukemia transplated tumor models of in nude mice. The mice were administered from the third day after the inoculation. The treated group was intragastrically administered at the experimentally designed amount, the negative control group was intragastrically administered with sterile water, and the positive control group was intragastrically administered with IM. Each mouse was intragastrically administered in 0.4 ml each time and 2 times a day. The administrations were successive for 14 days. The day before administration was deemed as Day 0 and the body weight and tumor size of the mice were determined every 5 days to produce a dynamic plot on body weight and tumor growth. On Day 23, the mice were sacrificed and the tumors were taken out and weighed. The tumor inhibition rate (%) was calculated after the effect of the medicament based on a tumor inhibition rate of the control group being zero.

Series [3] has as its system CML-BC (KCL-28 patient's cells). The series can be described thus: MTT cell viability, 72 h, single drugs and combination. It is filed as cell-based. As to conditions: read-out: CV(%) cell viability. The source says:
(§3) Leukemia cell lines: K562 (chronic myeloid leukemia cell line), K562/ADR (doxorubicin(ADM)-resistant human chronic granulocytic leukemia cell line), KCL-22 (chronic myeloid leukemia cell line), KCL-22 M (human chronic granulocytic leukemia cell line mutant), CML-BC (KCL-28 patient's cells), all of which are donated by Cancer Research Institute of Zhejiang University, China; KU812 (chronic myeloid leukemia cell line), purchased from Fuxiang Bio-tech Co. Ltd., Shanghai, China.
(§4) 1. […] Well-growing leukemia cells were obtained and inoculated into wells of a 96-well cell culture plate at 5000 cells/well. Respective compounds of various concentrations were added, mixed uniformly, and incubated (5% CO2) at 37° C. for 72 hours. Then the cell viability was determined by the MTT method.
(§5) 2. Determine the inhibitory effects of bisbenzylisoquinoline in combination with IM on leukemia cells in vitro. The pretreatment of the cells was the same as in a). The control group was not treated with the compound while administered. In the experimental group, compounds were added respectively to the concentration under which the IC50 (μg/mL) of the compounds in step 1 achieves. As to the combination group, the two compounds were added together into the same group of wells. After 72 hours of incubation, the MTT method was used for the determination of cell viability. The cell viability of the control group was set to 100% in this experiment, and the BBM/TTD, IM single drug and combined effects on cell viability (100%) were calculated.

Series [4] relates to K562 (chronic myeloid leukemia cell line). The series is described as above. The format is cell-based. The following applies: Homo sapiens, read-out: CV(%) cell viability.
Description: as §3, §4, §5

Series [5] deals with KCL-22 (chronic myeloid leukemia cell line). The series is described as above. It is filed as cell-based. As to conditions: Homo sapiens, read-out: CV(%) cell viability.
Description: as §3, §4, §5

The subject of series [6] is KCL-22 M (human chronic granulocytic leukemia cell line mutant). Described as above. The format is cell-based. The following applies: read-out: CV(%) cell viability.
Description: as §3, §4, §5

The test system of series [7] is K562/ADR (doxorubicin(ADM)-resistant human chronic granulocytic leukemia cell line). The description is as above. It is filed as cell-based. The following applies: read-out: CV(%) cell viability.
Description: as §3, §4, §5

Series [8] has as its system KU812 (chronic myeloid leukemia cell line). The description is as above. The format is cell-based. The following applies: Homo sapiens, KU812, 72 h; read-out: CV(%) cell viability.
Description: as §3, §4, §5

A short description of series [9]: Experiment 2-1: body weight of tumor-bearing nude mice. It is filed as in vivo, BALB/c-nu nude mice. The following applies: 100 mg/kg each drug, intragastric, 2 times a day, 14 days, x ± s, n=3; for Body weight (g) Final: final (Day 23). The method, then:
as §2

Series [10] deals with peripheral blood leucocyte of a normal human being. The following applies: drug concentration 0.5 μg/mL to 10 μg/mL; cited from earlier work.
Series [11] can be described thus: Experiment 2-2: body weight of tumor-bearing nude mice. It is filed as in vivo, BALB/c-nu nude mice. The following applies: 50 mg/kg each drug, intragastric, 2 times a day, 14 days, x ± s, n=3; for Body weight (g) Final: final (Day 20). The method, then:
as §2, with “the sixth” for “the third”, “Day 20,” for “Day 23,”, “tumors are” for “tumors were”

For series [12], the system named is K562/ADR leukemia transplanted tumor. As to the kind of experiment: Experiment 2-2: inhibition of leukemia transplanted tumor in nude mice (TTD, IM). The format is in vivo, BALB/c-nu nude mice. The following applies: K562/ADR xenograft, 50 mg/kg each drug, intragastric, 2 times a day, 14 days, Day 20; for Tumor inhibition rate (%): control = 0; for Tumor weight: x ± s. The method, then:
Leukemia cell lines: K562/ADR (ADM-resistant human chronic myeloid leukemia cell line);
as §1
as §2, with “the sixth” for “the third”, “Day 20,” for “Day 23,”, “tumors are” for “tumors were”

Regarding `COc1cc2c3cc1Oc1c(OC)c(OC)cc4c1[C@@H](Cc1ccc(O)c(c1)Oc1ccc(cc1)C[C@@H]3N(C)CC2)N(C)CC4` [BBM, 6,6′,7-trimethoxy-2,2′-dimethylberbaman-12-ol], the cell viability in series [1] (drug concentration 0.5 μg/mL) is 93.69%; in series [1] (drug concentration 10 μg/mL), 14.85%. Besides, in series [2], the “Tumor inhibition rate (%)” value is listed as 63.66%. Moreover, the “Tumor weight” value in series [2] was 0.25 ± 0.34 g. Further, the viability at 1.5 µg/mL in series [3] was 54.4%; in series [7] (K562/Adr) it was 46.3%; in [8], 51.6%. The viability at 1.6 µg/mL in series [4] (K562, BBM 1.6 μg/mL (IC50 dose), 72 h, MTT) is 44.5%. The viability at 6.5 µg/mL in [5] (KCL-22, BBM 6.5 μg/mL (IC50 dose), 72 h, MTT) worked out at 50%. Also, in series [6] (KCL-22, 72 h), the viability at 1.7 µg/mL came to 52.4%. For the same compound, the “Body weight (g) Final” value in series [9] turned out to be 18.57 ± 2.28 g. The “Body weight (g) Initial” value in series [9] was 21.23 ± 0.23 g. Moreover, in series [10], the cytotoxic effect result was “no evident cytotoxic effect”.

In the case of `Cc1ccc(NC(=O)c2ccc(CN3CCN(C)CC3)cc2)cc1Nc1nccc(-c2cccnc2)n1` [IM], in series [11], the “Body weight (g) Final” value is reported as 18.40 ± 0.52 g and the “Body weight (g) Initial” value is listed as 21.47 ± 0.21 g. For the same compound, in series [2], the “Tumor inhibition rate (%)” value is 71.98% and the “Tumor weight” value was found to be 0.19 ± 0.27 g. Moreover, in series [12], the “Tumor inhibition rate (%)” value worked out at 12.26% and the “Tumor weight” value came out at 0.81 ± 0.52 g. For the same compound, in series [3], the viability at 0.01 µg/mL turned out to be 57.1% and the viability at 0.02 µg/mL was found to be 57.1%. In addition, in series [4] (K562, 72 h), the viability at 0.02 µg/mL was 57.9% and the viability at 0.03 µg/mL came out at 44.2%. Moreover, the viability at 0.05 µg/mL in [5] (KCL-22, 72 h) worked out at 51.1%. Moreover, the viability at 0.08 µg/mL in [5] (KCL-22, IM 0.08 μg/mL (IC50 dose), 72 h, MTT) came out at 48.5%. Also, the viability at 3.27 µg/mL in [6] (KCL-22 M, IM 3.27 μg/mL (IC50 dose), 72 h, MTT) is 48%. Besides, the viability at 0.16 µg/mL in series [7] (K562/ADR, IM 0.16 μg/mL (IC50 dose), MTT) came to 42.5%. Further, the viability at 0.2 µg/mL in [7] (K562/Adr) was 42.3%. In addition, in [8], the viability at 0.01 µg/mL came to 56.7% and the viability at 0.03 µg/mL came out at 53.3%. Moreover, in series [9], the “Body weight (g) Final” value was determined as 17.37 ± 2.75 g and the “Body weight (g) Initial” value came out at 21.00 ± 0.12 g.

As for `COc1ccc2cc1Oc1ccc(cc1)C[C@H]1c3cc(c(OC)cc3CCN1C)Oc1c(OC)c(OC)cc3c1[C@H](C2)N(C)CC3` [TTD, 6,6′,7,12-tetramethoxy-2,2′dimethylberbamine], in series [11], the “Body weight (g) Final” value is recorded as 18.93 ± 1.53 g and the “Body weight (g) Initial” value amounted to 21.30 ± 0.10 g. Further, in series [12], the “Tumor inhibition rate (%)” value was found to be 10.18% and the “Tumor weight” value is given as 0.83 ± 0.76 g.
